Measured values as given in US10945932B2, “Prebiotic oral care compositions containing carboxylic acids” (COLGATE-PALMOLIVE COMPANY, priority 2013, dated 2021).
Read-outs that look alike come from different tables or passages of the source.

Key:
[1] = test system: Actinomyces viscosus; conditions: A viscosus, BHI
[2] = test system: Prevotella intermedia; experiment: Metabolic activity, Biolog phenotype microarray; assay type: cell-based; conditions: P intermedia
Experimental: (§1) The extent of metabolic activity of the tested bacteria in the presence of the above-mentioned acids after 24 hours and 48 hours was investigated through a high throughput phenotype microarray system (PM) for microbial cells (Biolog Inc.). Each PM can contain up to 95 different biochemical compounds (e.g. organic acids) that may act as substrates for bacteria as well as one negative control, not containing the substrates. Microarray plates were used in which the different wells of each plate were pre-loaded (by the manufacturer, Biolog Inc.) with different organic acids to be tested. Each bacterial species was tested using a separate microarray plate. Thus, a single bacterial species was tested with a variety of organic acids on each particular plate. The microarrays are based on redox technology, using cell respiration as a universal reporter. […] The observation of this color change indicates which of the substrates improve the metabolic activity and health of the cells.
(§2) Each bacterial species was collected from blood agar plates (incubated for 48 hours anaerobically at 37° C.) and transferred to an IF-0 Base inoculation fluid (Biolog Inc.), which is a nutritionally poor medium. […] A 1:5 dilution of this suspension was prepared by mixing 3 mL of the 42% transmittance cell suspension with 15 mL of an inoculation fluid (which inoculation fluid was formed by mixing 11.6 mL sterile water, 62.5 mL IF-0 base inoculation fluid and 0.9 mL of the tetrazolium dye “Biolog Redox Dye mix D”), resulting in a final cell density which was equal to 85% transmittance using a BioRad SmartSpec 3000 Photometer. For each of the acids tested, the microarray plate (obtained from the supplier (Biolog Inc.) with acid already present in the relevant wells in powder form) was directly inoculated with 100 μL/well of this 85% transmittance cell suspension.
(§3) All plates were incubated in an anaerobic atmosphere at 37° C. Color changes were measured spectrophotometrically at 492 nm (Thermo Scientific Multiskan Ascent) at 24 hrs and 48 hrs using the same plate at both time points.
(§4) The controls were also carried out three times, as above.

[3] = test system: Actinomyces viscosus; experiment: Metabolic activity, Biolog phenotype microarray; assay type: cell-based; conditions: A viscosus
Experimental: as §1, §2, §3, §4

[4] = test system: Capnocytophaga sputigena; experiment: Metabolic activity, Biolog phenotype microarray; assay type: cell-based; conditions: C sputigena
Experimental: as §1, §2, §3, §4

[5] = test system: Streptococcus gordonii; experiment: Metabolic activity, Biolog phenotype microarray; assay type: cell-based; conditions: S gordonii
Experimental: as §1, §2, §3, §4

[6] = test system: Aggregatibacter actinomycetemcomitans; experiment: Metabolic activity, Biolog phenotype microarray; assay type: cell-based; conditions: A actinomycetemcomitans
Experimental: as §1, §2, §3, §4

[7] = test system: Fusobacterium nucleatum; experiment: Metabolic activity, Biolog phenotype microarray; assay type: cell-based; conditions: F nucleatum
Experimental: as §1, §2, §3, §4

[8] = test system: Streptococcus sobrinus; experiment: Metabolic activity, Biolog phenotype microarray; assay type: cell-based; conditions: S sobrinus
Experimental: as §1, §2, §3, §4

[9] = test system: Streptococcus salivarius; experiment: Metabolic activity, Biolog phenotype microarray; assay type: cell-based; conditions: S salivarius
Experimental: as §1, §2, §3, §4

[10] = test system: Streptococcus mutans; experiment: Metabolic activity, Biolog phenotype microarray; assay type: cell-based; conditions: S mutans
Experimental: as §1, §2, §3, §4

[11] = test system: Actinomyces naeslundii; experiment: Metabolic activity, Biolog phenotype microarray; assay type: cell-based; conditions: A naeslundii
Experimental: as §1, §2, §3, §4

[12] = test system: Tannerella forsythia; experiment: Metabolic activity, Biolog phenotype microarray; assay type: cell-based; conditions: T forsythia
Experimental: as §1, §2, §3, §4

[13] = test system: Streptococcus mitis; experiment: Metabolic activity, Biolog phenotype microarray; assay type: cell-based; conditions: S mitis
Experimental: as §1, §2, §3, §4

[14] = test system: Streptococcus sanguinis; experiment: Metabolic activity, Biolog phenotype microarray; assay type: cell-based; conditions: S sanguinis
Experimental: as §1, §2, §3, §4

[15] = test system: Porphyromonas gingivalis; experiment: Metabolic activity, Biolog phenotype microarray; assay type: cell-based; conditions: P gingivalis
Experimental: as §1, §2, §3, §4

[16] = test system: Veillonella parvula; experiment: Metabolic activity, Biolog phenotype microarray; assay type: cell-based; conditions: V parvula
Experimental: as §1, §2, §3, §4

[17] = test system: Streptococcus gordonii; experiment: Biofilm growth assay in BHI, crystal violet; assay type: cell-based; conditions: S gordonii
Experimental: (§5) Late exponential growth phase liquid cultures were prepared by transferring the respective bacterium from blood agar plates to BHI and overnight incubation at 37° C. in an anaerobic atmosphere for A. viscosus, V. parvula, F. nucleatum, P. gingivalis, P. intermedia, T. forsythia, A. naeslundii, and C. sputigena, and in a 5% CO2 environment for S. salivarius, S. sanguinis, S. mitis, A. actinomycetemcomitans, S. mutans, and S. gordonii. […] Additionally, for each bacterium tested, a background control, to correct for background staining, was added. This background control contained the bacterium tested and 0.03 weight % chlorhexidine, as an antiseptic. Plates were incubated as previously described. After 48 hrs the supernatant was removed from the wells of the plates. The wells were washed twice with 1×100 μL/PBS (phosphate buffered saline), fixed for 20 minutes with 96% vol. ethanol (96% vol. solution in water) and the biofilm retained at the bottom of the wells was stained with 1 weight % crystal violet (1 weight % solution in water). […] Quantification of the stained biofilm was performed by measuring the absorbance at 630 nm using a Multiskan Ascent microplate reader (Thermo Scientific).

[18] = test system: Streptococcus mutans; experiment: Biofilm growth assay in BHI, crystal violet; assay type: cell-based; conditions: S mutans
Experimental: as §5

[19] = test system: Tannerella forsythia; experiment: Biofilm growth assay in BHI, crystal violet; assay type: cell-based; conditions: T forsythia
Experimental: as §5

[20] = test system: Porphyromonas gingivalis; experiment: Biofilm growth assay in BHI, crystal violet; assay type: cell-based; conditions: P gingivalis
Experimental: as §5

[21] = test system: Tannerella forsythia; conditions: T forsythia, BHI

`N[C@@H](CC(=O)O)C(=O)O` [L-aspartic acid] was tested, and the “extent of growth, maximal OD630 over 48 hr divided by maximal OD of control (control = 1)” value ([1]; 5 μmol/ml) was 0.6862, the “extent of growth, maximal OD630 over 48 hr divided by maximal OD of control (control = 1)” value ([1]; 10 μmol/ml) was 0.6163 and the “extent of growth, maximal OD630 over 48 hr divided by maximal OD of control (control = 1)” value ([1]; 20 μmol/ml) was 0.5787. For the same molecule, the “extent of growth, maximal OD630 over 48 hr divided by maximal OD of control (control = 1)” value ([1]; 25 μmol/ml) was 0.5023, the “metabolic activity, OD at 492 nm divided by OD of control (control = 1)” value (from here on “metabolic activity, OD at 492 nm divided”) ([2]; 24 hrs) was 0.9390 and the “metabolic activity, OD at 492 nm divided” value ([2]; 48 hrs) was 0.9154. For the same molecule, the “metabolic activity, OD at 492 nm divided” value ([3]; 24 hrs) was 0.9434, the “metabolic activity, OD at 492 nm divided” value ([3]; 48 hrs) was 0.9275 and the “metabolic activity, OD at 492 nm divided” value ([4]; 24 hrs) was 0.7060. The “metabolic activity, OD at 492 nm divided” value ([4]; 48 hrs) was 0.7655, the “metabolic activity, OD at 492 nm divided” value ([5]; 24 hrs) was 0.8729 and the “metabolic activity, OD at 492 nm divided” value ([5]; 48 hrs) was 0.8488. For the same molecule, the “metabolic activity, OD at 492 nm divided” value ([6]; 24 hrs) was 1.4358, the “metabolic activity, OD at 492 nm divided” value ([6]; 48 hrs) was 1.6253 and the “metabolic activity, OD at 492 nm divided” value ([7]; 24 hrs) was 0.9201. For the same molecule, the “metabolic activity, OD at 492 nm divided” value ([7]; 48 hrs) was 0.9448, the “metabolic activity, OD at 492 nm divided” value ([8]; 24 hrs) was 1.0053 and the “metabolic activity, OD at 492 nm divided” value ([8]; 48 hrs) was 0.9338. For the same molecule, the “metabolic activity, OD at 492 nm divided” value ([9]; 24 hrs) was 0.9496, the “metabolic activity, OD at 492 nm divided” value ([9]; 48 hrs) was 0.8503 and the “metabolic activity, OD at 492 nm divided” value ([10]; 24 hrs) was 0.9715. The “metabolic activity, OD at 492 nm divided” value ([10]; 48 hrs) was 0.8709, the “metabolic activity, OD at 492 nm divided” value ([11]; 24 hrs) was 0.8814 and the “metabolic activity, OD at 492 nm divided” value ([11]; 48 hrs) was 0.8283. The “metabolic activity, OD at 492 nm divided” value ([12]; 24 hrs) was 0.9565, the “metabolic activity, OD at 492 nm divided” value ([12]; 48 hrs) was 0.9575 and the “metabolic activity, OD at 492 nm divided” value ([13]; 24 hrs) was 1.0323. For the same molecule, the “metabolic activity, OD at 492 nm divided” value ([13]; 48 hrs) was 0.9065, the “metabolic activity, OD at 492 nm divided” value ([14]; 24 hrs) was 0.9451 and the “metabolic activity, OD at 492 nm divided” value ([14]; 48 hrs) was 0.9195. For the same molecule, the “metabolic activity, OD at 492 nm divided” value ([15]; 24 hrs) was 0.8910, the “metabolic activity, OD at 492 nm divided” value ([15]; 48 hrs) was 0.9017 and the “metabolic activity, OD at 492 nm divided” value ([16]; 24 hrs) was 1.8448. The “metabolic activity, OD at 492 nm divided” value ([16]; 48 hrs) was 2.2760, the “biofilm growth, OD at 630 nm (crystal violet) at 48 hrs divided by OD of control (control = 1)” value ([17]; 5 μmol/ml) was 1.3455 and the “biofilm growth, OD at 630 nm (crystal violet) at 48 hrs divided by OD of control (control = 1)” value ([17]; 10 μmol/ml) was 1.6702. For the same molecule, the “biofilm growth, OD at 630 nm (crystal violet) at 48 hrs divided by OD of control (control = 1)” value ([17]; 20 μmol/ml) was 2.1065, the “biofilm growth, OD at 630 nm (crystal violet) at 48 hrs divided by OD of control (control = 1)” value ([17]; 25 μmol/ml) was 2.2320 and the “biofilm growth, OD at 630 nm (crystal violet) at 48 hrs divided by OD of control (control = 1)” value ([18]; 5 μmol/ml) was 0.0000. For the same molecule, the “biofilm growth, OD at 630 nm (crystal violet) at 48 hrs divided by OD of control (control = 1)” value ([18]; 10 μmol/ml) was 0.0000, the “biofilm growth, OD at 630 nm (crystal violet) at 48 hrs divided by OD of control (control = 1)” value ([18]; 20 μmol/ml) was 0.1923 and the “biofilm growth, OD at 630 nm (crystal violet) at 48 hrs divided by OD of control (control = 1)” value ([18]; 25 μmol/ml) was 0.0000. The “biofilm growth, OD at 630 nm (crystal violet) at 48 hrs divided by OD of control (control = 1)” value ([19]; 5 μmol/ml) was 1.0369, the “biofilm growth, OD at 630 nm (crystal violet) at 48 hrs divided by OD of control (control = 1)” value ([19]; 10 μmol/ml) was 0.9131 and the “biofilm growth, OD at 630 nm (crystal violet) at 48 hrs divided by OD of control (control = 1)” value ([19]; 20 μmol/ml) was 1.0055. For the same molecule, the “biofilm growth, OD at 630 nm (crystal violet) at 48 hrs divided by OD of control (control = 1)” value ([19]; 25 μmol/ml) was 0.9659, the “biofilm growth, OD at 630 nm (crystal violet) at 48 hrs divided by OD of control (control = 1)” value ([20]; 5 μmol/ml) was 0.9713 and the “biofilm growth, OD at 630 nm (crystal violet) at 48 hrs divided by OD of control (control = 1)” value ([20]; 10 μmol/ml) was 0.9936. For the same molecule, the “biofilm growth, OD at 630 nm (crystal violet) at 48 hrs divided by OD of control (control = 1)” value ([20]; 20 μmol/ml) was 1.0779, the “biofilm growth, OD at 630 nm (crystal violet) at 48 hrs divided by OD of control (control = 1)” value ([20]; 25 μmol/ml) was 0.9307 and the “extent of growth, maximal OD630 over 48 hr divided by maximal OD of control (control = 1)” value ([21]; 5 μmol/ml) was 0.9947. For the same molecule, the “extent of growth, maximal OD630 over 48 hr divided by maximal OD of control (control = 1)” value ([21]; 10 μmol/ml) was 0.9717, the “extent of growth, maximal OD630 over 48 hr divided by maximal OD of control (control = 1)” value ([21]; 20 μmol/ml) was 1.0111 and the “extent of growth, maximal OD630 over 48 hr divided by maximal OD of control (control = 1)” value ([21]; 25 μmol/ml) was 0.9935.
